Data published in patent US12493040B2, “Cancer detection method using sense of smell of nematode” (HIROTSU BIO SCIENCE INC., priority 2013, dated 2025).

Test system: RNAi-treated eri-1 (mg366) nematodes
Experiment: RNAi screening of olfactory receptor genes: chemotaxis assay of RNAi-treated nematodes to odorants
Type: in vivo, Caenorhabditis elegans
Details: repellent or high concentration of attractant
Method in brief: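 eri-1 (mg366) worms knocked down by feeding RNAi (Ahringer library) on IPTG/ampicillin NGM plates with E. coli for 4 days, then tested for chemotaxis, 30–50 worms per assay. Odorants at 1 μl of 10^−3 or 10^−4 dilution, or 1 and 5 μl undiluted. Hits scored by z score, thresholds ±1.96 (P<0.05) or ±0.96.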

Q: For `CCCCCCCCO` [octanol], which chemotaxis index (Control nematodes) is on record?
A: −0.68 ± 0.018

Q: What about the chemotaxis index (srh-4 RNAi-treated nematodes) of the same compound?
A: −0.17

Q: And the chemotaxis index (srh-7 RNAi-treated nematodes)?
A: −0.65

Q: And the chemotaxis index (srh-8 RNAi-treated nematodes)?
A: −0.80

Q: And the chemotaxis index (srh-10 RNAi-treated nematodes)?
A: −0.45

Q: And the chemotaxis index (srh-11 RNAi-treated nematodes)?
A: −0.19

Q: What about the chemotaxis index (srh-15 RNAi-treated nematodes) of the same compound?
A: −0.85

Q: What about the chemotaxis index (srh-16 RNAi-treated nematodes) of the same compound?
A: −0.89

Q: And the chemotaxis index (srh-18 RNAi-treated nematodes)?
A: −0.65

Q: And the chemotaxis index (srh-19 RNAi-treated nematodes)?
A: −0.33

Q: What about the chemotaxis index (srh-22 RNAi-treated nematodes) of the same compound?
A: −0.48

Q: What about the chemotaxis index (srh-23 RNAi-treated nematodes) of the same compound?
A: −0.90

Q: And the chemotaxis index (srh-24 RNAi-treated nematodes)?
A: −0.56

Q: What about the chemotaxis index (srh-25 RNAi-treated nematodes) of the same compound?
A: −0.90

Q: What about the chemotaxis index (srh-27 RNAi-treated nematodes) of the same compound?
A: −0.68

Q: And the chemotaxis index (srh-28 RNAi-treated nematodes)?
A: −0.73

Q: What about the chemotaxis index (srh-36 RNAi-treated nematodes) of the same compound?
A: −0.72

Q: What about the chemotaxis index (srh-37 RNAi-treated nematodes) of the same compound?
A: −0.88

Q: And the chemotaxis index (srh-39 RNAi-treated nematodes)?
A: −0.50

Q: What about the chemotaxis index (srh-40 RNAi-treated nematodes) of the same compound?
A: −0.92

Q: And the chemotaxis index (srh-41 RNAi-treated nematodes)?
A: −0.80

Q: And the chemotaxis index (srh-44 RNAi-treated nematodes)?
A: −0.52

Q: What about the chemotaxis index (srh-45 RNAi-treated nematodes) of the same compound?
A: −0.87

Q: What about the chemotaxis index (srh-46 RNAi-treated nematodes) of the same compound?
A: −0.87

Q: What about the chemotaxis index (srh-48 RNAi-treated nematodes) of the same compound?
A: −0.83

Q: What about the chemotaxis index (srh-49 RNAi-treated nematodes) of the same compound?
A: −0.57

Q: What about the chemotaxis index (srh-50 RNAi-treated nematodes) of the same compound?
A: −0.89

Q: What about the chemotaxis index (srh-51 RNAi-treated nematodes) of the same compound?
A: −0.89

Q: What about the chemotaxis index (srh-52 RNAi-treated nematodes) of the same compound?
A: −0.79

Q: What about the chemotaxis index (srh-55 RNAi-treated nematodes) of the same compound?
A: −0.95

Q: And the chemotaxis index (srh-59 RNAi-treated nematodes)?
A: −0.55

Q: And the chemotaxis index (srh-60 RNAi-treated nematodes)?
A: −0.52

Q: What about the chemotaxis index (srh-61 RNAi-treated nematodes) of the same compound?
A: −0.77

Q: And the chemotaxis index (srh-67 RNAi-treated nematodes)?
A: −0.66

Q: And the chemotaxis index (srh-68 RNAi-treated nematodes)?
A: −0.79

Q: And the chemotaxis index (srh-69 RNAi-treated nematodes)?
A: −0.61

Q: What about the chemotaxis index (srh-70 RNAi-treated nematodes) of the same compound?
A: −0.80

Q: What about the chemotaxis index (srh-71 RNAi-treated nematodes) of the same compound?
A: −0.60

Q: And the chemotaxis index (srh-72 RNAi-treated nematodes)?
A: −0.62

Q: And the chemotaxis index (srh-74 RNAi-treated nematodes)?
A: −0.89

Q: And the chemotaxis index (srh-75 RNAi-treated nematodes)?
A: −0.59

Q: What about the chemotaxis index (srh-77 RNAi-treated nematodes) of the same compound?
A: −0.31

Q: What about the chemotaxis index (srh-79 RNAi-treated nematodes) of the same compound?
A: −0.17

Q: What about the chemotaxis index (srh-80 RNAi-treated nematodes) of the same compound?
A: −0.39

Q: And the chemotaxis index (srh-82 RNAi-treated nematodes)?
A: −0.65

Q: And the chemotaxis index (srh-83 RNAi-treated nematodes)?
A: −0.33

Q: What about the chemotaxis index (srh-97 RNAi-treated nematodes) of the same compound?
A: −0.64

Q: And the chemotaxis index (srh-99 RNAi-treated nematodes)?
A: −0.61

Q: And the chemotaxis index (srh-100 RNAi-treated nematodes)?
A: −0.46

Q: What about the chemotaxis index (srh-104 RNAi-treated nematodes) of the same compound?
A: −0.36

Q: And the chemotaxis index (srh-105 RNAi-treated nematodes)?
A: −0.61

Q: What about the chemotaxis index (srh-109 RNAi-treated nematodes) of the same compound?
A: −0.91

Q: What about the chemotaxis index (srh-111 RNAi-treated nematodes) of the same compound?
A: −0.44

Q: And the chemotaxis index (srh-113 RNAi-treated nematodes)?
A: −0.43

Q: What about the chemotaxis index (srh-115 RNAi-treated nematodes) of the same compound?
A: −0.82

Q: What about the chemotaxis index (srh-116 RNAi-treated nematodes) of the same compound?
A: −0.82

Q: And the chemotaxis index (srh-118 RNAi-treated nematodes)?
A: −0.37

Q: And the chemotaxis index (srh-119 RNAi-treated nematodes)?
A: −0.35

Q: And the chemotaxis index (srh-120 RNAi-treated nematodes)?
A: −0.37

Q: What about the chemotaxis index (srh-122 RNAi-treated nematodes) of the same compound?
A: −0.61

Q: What about the chemotaxis index (srh-123 RNAi-treated nematodes) of the same compound?
A: −0.32

Q: And the chemotaxis index (srh-125 RNAi-treated nematodes)?
A: −0.56

Q: What about the chemotaxis index (srh-128 RNAi-treated nematodes) of the same compound?
A: −0.47

Q: And the chemotaxis index (srh-129 RNAi-treated nematodes)?
A: −0.56

Q: And the chemotaxis index (srh-130 RNAi-treated nematodes)?
A: −0.68

Q: And the chemotaxis index (srh-131 RNAi-treated nematodes)?
A: −0.49

Q: What about the chemotaxis index (srh-132 RNAi-treated nematodes) of the same compound?
A: −0.19

Q: And the chemotaxis index (srh-139 RNAi-treated nematodes)?
A: −0.73

Q: And the chemotaxis index (srh-140 RNAi-treated nematodes)?
A: −0.78

Q: What about the chemotaxis index (srh-141 RNAi-treated nematodes) of the same compound?
A: −0.49

Q: And the chemotaxis index (srh-142 RNAi-treated nematodes)?
A: −0.59

Q: What about the chemotaxis index (srh-145 RNAi-treated nematodes) of the same compound?
A: −0.64

Q: And the chemotaxis index (srh-148 RNAi-treated nematodes)?
A: −0.67

Q: And the chemotaxis index (srh-154 RNAi-treated nematodes)?
A: −0.65

Q: And the chemotaxis index (srh-159 RNAi-treated nematodes)?
A: −0.79

Q: What about the chemotaxis index (srh-165 RNAi-treated nematodes) of the same compound?
A: −0.49

Q: What about the chemotaxis index (srh-166 RNAi-treated nematodes) of the same compound?
A: −0.74

Q: What about the chemotaxis index (srh-167 RNAi-treated nematodes) of the same compound?
A: −0.28

Q: What about the chemotaxis index (srh-169 RNAi-treated nematodes) of the same compound?
A: −0.62

Q: What about the chemotaxis index (srh-174 RNAi-treated nematodes) of the same compound?
A: −0.45

Q: And the chemotaxis index (srh-179 RNAi-treated nematodes)?
A: −0.60

Q: What about the chemotaxis index (srh-182 RNAi-treated nematodes) of the same compound?
A: −0.86

Q: And the chemotaxis index (srh-186 RNAi-treated nematodes)?
A: −0.64

Q: And the chemotaxis index (srh-190 RNAi-treated nematodes)?
A: −0.64

Q: What about the chemotaxis index (srh-193 RNAi-treated nematodes) of the same compound?
A: −0.92

Q: What about the chemotaxis index (srh-195 RNAi-treated nematodes) of the same compound?
A: −0.47

Q: What about the chemotaxis index (srh-201 RNAi-treated nematodes) of the same compound?
A: −0.93

Q: And the chemotaxis index (srh-203 RNAi-treated nematodes)?
A: −0.95

Q: What about the chemotaxis index (srh-204 RNAi-treated nematodes) of the same compound?
A: −0.90

Q: What about the chemotaxis index (srh-206 RNAi-treated nematodes) of the same compound?
A: −0.94

Q: What about the chemotaxis index (srh-207 RNAi-treated nematodes) of the same compound?
A: −0.81

Q: And the chemotaxis index (srh-208 RNAi-treated nematodes)?
A: −0.60

Q: And the chemotaxis index (srh-209 RNAi-treated nematodes)?
A: −0.85

Q: And the chemotaxis index (srh-210 RNAi-treated nematodes)?
A: −0.77

Q: What about the chemotaxis index (srh-214 RNAi-treated nematodes) of the same compound?
A: −0.98

Q: What about the chemotaxis index (srh-216 RNAi-treated nematodes) of the same compound?
A: −0.68

Q: And the chemotaxis index (srh-217 RNAi-treated nematodes)?
A: −0.82

Q: What about the chemotaxis index (srh-220 RNAi-treated nematodes) of the same compound?
A: −0.47

Q: And the chemotaxis index (srh-222 RNAi-treated nematodes)?
A: −0.77

Q: What about the chemotaxis index (srh-223 RNAi-treated nematodes) of the same compound?
A: −0.75
